Reference: patent US10968214B2, “KRas G12C inhibitors” (Eli Lilly and Company, priority 2018, dated 2021)
Where two headings read alike, the source gives them in different places.

How the values were obtained:
[1] = test system: EL3187; test: CellTiterGlo Cell Proliferation Assay, EL3187; type: cell-based; details: KRas G12C, Lung, 96 hr
Experimental: (§1) A panel of tumor cell lines harboring KRas G12C or other KRas mutations are collected (Table 6). All cell lines are from ATCC or other sources indicated.
(§2) Typically cells are cultured in RPMI1640 or Dulbecco's modified Eagle's medium (DMEM, GIBCO) supplemented with 10% FBS (GIBCO, Invitrogen). For 2D culture cells (4×10^3/well) maintained in growth medium described above, are plated onto 96 well tissue culture plates Corning® Cat. 3603) a day before the treatment. For 3D culture 8000 cells/well are seeded onto 96 well ultra-low attachment tissue culture plates (Corning, #3474). The cells are treated compound for 96 hr, and then are analyzed for viability using the CellTiterGlo® Luminescent Cell Viability Assay® (Promega #G7572 for 2D and Promega #G9683 for 3D cultures) according to manufacturer's instructions and an EnVision™ plate reader. Nonlinear regression and sigmoidal dose-response curves are used to calculate the half maximal inhibitory concentration (IC50) with GraphPad Prism 4® software.

[2] = test system: H358; test: CellTiterGlo Cell Proliferation Assay, H358; type: cell-based; details: Homo sapiens, NCI-H358, KRas G12C, Lung, 96 hr
Experimental: as §1, §2

[3] = test system: H2030; test: CellTiterGlo Cell Proliferation Assay, H2030; type: cell-based; details: Homo sapiens, NCI-H2030, KRas G12C, Lung, 96 hr
Experimental: as §1, §2

[4] = test system: SW1573; test: CellTiterGlo Cell Proliferation Assay, SW1573; type: cell-based; details: Homo sapiens, KRas G12C, Lung, 96 hr, read-out: IC50 (μM) in 2 D cell proliferation
Experimental: as §1, §2

[5] = test system: D122-96; test: CellTiterGlo Cell Proliferation Assay, D122-96; type: cell-based; details: KRas G12C, Lung (mouse), 96 hr
Experimental: as §1, §2

[6] = test system: UM-UC-3; test: CellTiterGlo Cell Proliferation Assay, UM-UC-3; type: cell-based; details: Homo sapiens, UMUC3, KRas G12C, Bladder, 96 hr
Experimental: as §1, §2

[7] = test system: HCC827; test: CellTiterGlo Cell Proliferation Assay, HCC827; type: cell-based; details: Homo sapiens, KRas wild type, lung, 96 hr
Experimental: as §1, §2

[8] = test system: Calu-1; test: Combination 4 day growth assay (Cell TiterGlo), Calu-1; type: cell-based; details: Homo sapiens, Calu-1, 96 h, single treatment, read-out: Absolute IC50
Experimental: (§3) Cell lines for this study are obtained from ATCC and grown under ATCC recommended conditions, except for LXFA-983L, which is obtained from Oncotest/Charles Rivers Laboratories, Wilmington, Mass. and D122-96, which is obtained from L. Eisenbach (Weizman Institute of Science, Rehovot, Israel)—both grown under recommended conditions. […] The proliferation assay is performed as a 4 day growth assay using Cell TiterGlo® as the readout. Briefly, cells are plated in 96-well cell culture plates and allowed to adhere overnight at 37° C. The following day, cells are treated with compounds, either single treatments or combination treatments. First, the testing compounds are serially diluted in DMSO, followed by dilution into media as a 5× concentration with 1% DMSO, and finally added to cells in media to dilute to 1×. The cells are incubated at 37° C. for 4 more days. At the end of the incubation period, Cell TiterGlo® reagent is mixed and added to the wells. After 10 minutes, the luminescence is read by a Perkin Elmer Envision instrument. Absolute IC50 values generated by a 4-parameter logistics model for the single and combination treatments are generated, followed by combination indexes for each combination treatment and cell line. The combination IC50 values are adjusted based on the total concentration of each compound when added together. […] The combination index (CI) measures the degree to which the potency of a combination therapy differs from the expected-if-additive potency and is based on the Loewe definition of additivity.
(§4) [formula] Where • CAy and CBy are the concentrations of therapies A and B that produce an effect, y, when given in combination • ICAy and ICBy are the concentrations of A and B that produce an effect, y, when given individually The biological interpretation of the combination index is as follows: synergistic if the combination index <0.5, additive if the combination index is between 0.5 and 2, and antagonistic if the combination index is >2.

[9] = test system: SW837; test: Combination 4 day growth assay (Cell TiterGlo), SW837; type: cell-based; details: Homo sapiens, SW837, 96 h, single treatment, read-out: Absolute IC50
Experimental: as §3, §4

[10] = test system: LXFA-983L; test: Combination 4 day growth assay (Cell TiterGlo), LXFA-983L; type: cell-based; details: LXFA 983L, 96 h, single treatment, read-out: Absolute IC50
Experimental: as §3, §4

[11] = test system: H2030 xenograft; test: Anti-tumor growth activity, H2030 lung xenograft; type: in vivo; details: 28 Day, negative = regression
[12] = test system: SW837 xenograft; test: Anti-tumor growth activity, SW837 colorectal xenograft; type: in vivo; details: for Tumor Growth Inhibition (%) or Regression (−%): 28 Day, negative = regression
[13] = read-out: IC50 (μM) in 2 D cell proliferation
[14] = read-out: IC50 (μM) in 3 D spheroid cell proliferation

IC50 [2, 13]: 0.041 µM
IC50 [2, 14]: 0.026 µM
IC50 [3, 13]: 6.88 µM
IC50 [3, 14]: 0.003 µM
IC50 [4]: 16.7 µM
IC50 [7, 13]: 18.9 µM
IC50 [7, 14]: 4.63 µM
IC50 [8]: 14.5 nM
IC50 [9]: 101 nM
Compound: C=CC(=O)N1CCN(c2ncnc3c(F)c(-c4ccc(F)c5sc(N)nc45)c(Cl)cc23)CC1 [Example 1, 1-{4-[7-(2-Amino-7-fluoro-1,3-benzothiazol-4-yl)-6-chloro-8-fluoroquinazolin-4-yl]piperazin-1-yl}prop-2-en-1-one]
IC50 [1, 13]: 0.003 µM
IC50 [1, 14]: 0.013 µM
IC50 [5, 13]: 0.126 µM
IC50 [5, 14]: 0.069 µM
IC50 [6, 13]: 0.124 µM
IC50 [6, 14]: 0.075 µM
IC50 [10]: 2590 nM
Tumor Growth Inhibition (%) or Regression (−%) ([11]; 15 mg/kg BID): 82%
Tumor Growth Inhibition (%) or Regression (−%) ([11]; 30 mg/kg BID): 91.9%
Tumor Growth Inhibition (%) or Regression (−%) ([11]; 30 mg/kg QD): 75.1%
Tumor Growth Inhibition (%) or Regression (−%) ([12]; 15 mg/kg BID): −17%
Tumor Growth Inhibition (%) or Regression (−%) ([12]; 30 mg/kg BID): −46.1%
Tumor Growth Inhibition (%) or Regression (−%) ([12]; 30 mg/kg QD): −10.8%
In Vivo Anti-Tumor Activities ([12]; Example 1 30 mg/kg QDx28): −51.8
